Assay results: US10238743B2 (Merck Sharp & Dohme Corp., priority 2014, dated 2019)

Key:
[1] = molecular target: soluble human BACE1 catalytic domain (Homo sapiens (Human), UniProt P56817); experiment: BACE1 HTRF FRET Assay; format: biochemical; details: Ki calculated from IC50 using the Cheng-Prusoff equation; QSY7-APPswe-Eu substrate, pH 5.0; read-out: BACE-1 Ki
Text: Na^+-Acetate pH 5.0; 1% Brij-35; Glycerol; Dimethyl Sulfoxide (DMSO); Recombinant human soluble BACE1 catalytic domain (>95% pure); APP Swedish mutant peptide substrate (QSY7-APP^swe-Eu): QSY7-EISEVNLDAEFC-Europium-amide.
A homogeneous time-resolved FRET assay can be used to determine IC50 values for inhibitors of the soluble human BACE1 catalytic domain. This assay monitors the increase of 620 nm fluorescence that resulted from BACE1 cleavage of an APPswedish APP^swe mutant peptide FRET substrate (QSY7-EISEVNLDAEFC-Europium-amide). This substrate contains an N-terminal QSY7 moiety that serves as a quencher of the C-terminal Europium fluorophore (620 nm Em). In the absence of enzyme activity, 620 nm fluorescence is low in the assay and increased linearly over 3 hours in the presence of uninhibited BACE1 enzyme. Inhibition of BACE1 cleavage of the QSY7-APP^swe-Eu substrate by inhibitors is manifested as a suppression of 620 nm fluorescence.
Varying concentrations of inhibitors at 3× the final desired concentration in a volume of 10 ul are preincubated with purified human BACE1 catalytic domain (3 nM in 10 μl) for 30 minutes at 30° C. in reaction buffer containing 20 mM Na-Acetate pH 5.0, 10% glycerol, 0.1% Brij-35 and 7.5% DSMO. Reactions are initiated by addition of 10 μl of 600 nM QSY7-APP^swe-Eu substrate (200 nM final) to give a final reaction volume of 30 μl in a 384 well Nunc HTRF plate. The reactions are incubated at 30° C. for 1.5 hours. The 620 nm fluorescence is then read on a Rubystar HTRF plate reader (BMG Labtechnologies) using a 50 millisecond delay followed by a 400 millisecond acquisition time window. Inhibitor IC50 values are derived from non-linear regression analysis of concentration response curves. Ki values are then calculated from IC50 values using the Cheng-Prusoff equation using a previously determined […] of 8 μM for the QSY7-APP^swe-Eu substrate at BACE1.

[2] = molecular target: purified human autoBACE-2 (Homo sapiens (Human), UniProt Q9Y5Z0); experiment: BACE-2 Assay (BACE-HTRF assay); format: biochemical; details: Ki calculated from IC50 using the Cheng-Prusoff equation; QSY7-EISEVNLDAEFC-Eu-amide substrate, pH 5.0
purified human autoBACE-2, sequence (Q9Y5Z0 63-473 limits assumed): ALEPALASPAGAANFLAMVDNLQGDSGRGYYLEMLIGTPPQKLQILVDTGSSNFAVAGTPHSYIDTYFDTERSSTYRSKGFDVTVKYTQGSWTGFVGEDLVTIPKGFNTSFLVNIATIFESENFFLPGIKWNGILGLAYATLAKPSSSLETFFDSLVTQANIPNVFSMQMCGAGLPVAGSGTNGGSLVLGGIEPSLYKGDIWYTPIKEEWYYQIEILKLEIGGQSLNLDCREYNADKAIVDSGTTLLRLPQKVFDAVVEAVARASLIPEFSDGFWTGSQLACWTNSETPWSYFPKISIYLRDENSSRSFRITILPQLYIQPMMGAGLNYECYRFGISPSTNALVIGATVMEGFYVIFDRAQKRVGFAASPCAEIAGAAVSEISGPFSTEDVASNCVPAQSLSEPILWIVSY
Protocol: Inhibitor IC50s at purified human autoBACE-2 are determined in a time-resolved endpoint proteolysis assay that measures hydrolysis of the QSY7-[…]-Eu-amide FRET peptide substrate (BACE-HTRF assay). […] DMSO is present at 5% final concentration in the assay. Following laser excitation of sample wells at 320 nm, the fluorescence signal at 620 nm is collected for 400 ms following a 50 μs delay on a RUBYstar HTRF plate reader (BMG Labtechnologies). Raw RFU data is normalized to maximum (1.0 nM BACE/DMSO) and minimum (no enzyme/DMSO) RFU values. […] The Ki values are calculated from the IC50 using the Cheng-Prusoff equation.

soluble human BACE1 catalytic domain, sequence (P56817 75-416): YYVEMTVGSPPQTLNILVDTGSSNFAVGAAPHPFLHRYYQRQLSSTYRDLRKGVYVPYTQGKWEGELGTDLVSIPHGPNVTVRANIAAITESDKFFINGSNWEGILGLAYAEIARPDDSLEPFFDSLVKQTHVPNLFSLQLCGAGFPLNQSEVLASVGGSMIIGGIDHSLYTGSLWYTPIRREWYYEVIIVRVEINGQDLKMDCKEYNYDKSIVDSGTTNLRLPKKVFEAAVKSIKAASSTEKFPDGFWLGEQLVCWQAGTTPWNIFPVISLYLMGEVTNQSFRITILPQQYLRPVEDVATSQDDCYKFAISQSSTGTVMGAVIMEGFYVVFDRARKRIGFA

SMILES	Ki [1] [nM]	Ki [2] [nM]
CN1C(=N)N[C@]2(C)c3cc(NC(=O)c4ncc(C(F)(F)F)cc4Cl)ccc3CCC[C@@H]2S1(=O)=O [Example 30, 3-chloro-N-((4aS,11bR)-2-imino-3,11b-dimethyl-4,4-dioxido-1,2,3,4a,5,6,7,11b-octahydrobenzo[6,7]cyclohepta[1,2-e][1,2,4]thiadiazin-10-yl)-5-(trifluoromethyl)picolinamide]	10	82
CN1C(=N)N[C@]2(C)c3cc(NC(=O)c4ncc(F)cc4F)ccc3OCC[C@@H]2S1(=O)=O [Example 15]	10	6
C#CCOc1ccc(C(=O)Nc2ccc3c(c2)[C@@]2(C)NC(=N)N(C)S(=O)(=O)[C@@H]2CCO3)nc1 [Example 6, N-((4aR,11bR)-2-imino-3,11b-dimethyl-4,4-dioxido-2,3,4a,5,6,11b-hexahydro-1H-benzo[2,3]oxepino[4,5-e][1,2,4]thiadiazin-10-yl)-5-(prop-2-yn-1-yloxy)picolinamide]	25	995
COc1cnc2c(Nc3ccc4c(c3)[C@@]3(C)NC(=N)N(C)S(=O)(=O)[C@H]3CCC4)nccc2n1 [Example 44, (4aS,11bR)-2-imino-10-((2-methoxypyrido[3,4-b]pyrazin-5-yl)amino)-3,11b-dimethyl-1,2,3,4a,5,6,7,11b-octahydrobenzo[6,7]cyclohepta[1,2-e][1,2,4]-thiadiazine 4,4-dioxide]	45	173
CN1C(=N)N[C@]2(C)c3cc(NC(=O)c4ncc(C(F)(F)F)cc4Cl)ccc3OCC[C@@H]2S1(=O)=O [Example 20, 3-chloro-N-((4aS,11bR)-2-imino-3,11b-dimethyl-4,4-dioxido-2,3,4a,5,6,11b-hexahydro-1H-benzo[2,3]oxepino[4,5-e][1,2,4]thiadiazin-10-yl)-5-(trifluoromethyl)picolinamide]	5	36
CN1C(=N)N[C@]2(C)c3cc(NC(=O)c4ccc(C#N)cn4)ccc3OCC[C@H]2S1(=O)=O [Example 5, 5-cyano-N-((4aR,11bR)-2-imino-3,11b-dimethyl-4,4-dioxido-2,3,4a,5,6,11b-hexahydro-1H-benzo[2,3]oxepino[4,5-e][1,2,4]thiadiazin-10-yl)picolinamide]	47	303
COc1cnc(C(=O)Nc2ccc3c(c2)[C@@]2(C)NC(=N)N(C)S(=O)(=O)[C@H]2CCC3)c(C)n1 [Example 33]	48	86
CN1C(=N)N[C@]2(C)c3cc(NC(=O)c4ncc(Cl)cc4Cl)ccc3OCC[C@@H]2S1(=O)=O [Example 11]	2	2
